Columns and labels:
[1] = biological target: T1, CAPRIN1 and APP (Homo sapiens, UniProt P05067+Q14444); test: Streptavidin pull-down with biotinylated 0152 in AG27606-N lysates; type: binding
T1 construct: endogenous in cells; host or cells: AG27606-Ns, sAD2.3-Ns (iPSC-derived neurons) and their lysates

[2] = tested on: LN229 and HCT116 cells; set-up: method as in PMID 34644148; conditions: cited from earlier work

## N#Cc1ccc2nc(NC(=O)Nc3cccc(Cl)c3)sc2c1 [HB007, reference compound]
[1]
  Competition of the 0152-biotin pull-down by excess free compound: not by the inactive analog HB007
[2]
  Cancer cell growth: inhibits cancer cell growth
